Test results reported in patent US6803233B2, “Model for Alzheimer's disease and other neurodegenerative diseases” (priority 2000, dated 2004).
“And” between values parts separate entries of the source, which are not always exact repeats. Equal values may be shown once. “Also recorded” adds a separate entry of the source.

Columns and labels:
cathepsin D [1] = assay: Immunoblot of cathepsin D isoforms in cultured mouse hippocampal slices; format: cell-based; details: 20 μM ZPAD, 6 days
tau proteins = assay: Immunoblot with tau-1 antibody in cultured mouse hippocampal slices; format: cell-based; details: six days of ZPAD; for reduction in native tau proteins (50-55 kDa): mean±s.e.m., n=6
Protocol: (§1) Hippocampal slices were prepared from 10 to 13 day old C57BL/6J (wild-type) and C57BL/6J-ApoE^tm1Unc (ApoE-knockout) mice obtained from the Jackson laboratory, Bar Harbor, Me. Pups were placed under light bromo-chloro-trifluoroethane anesthesia (Sigma, St. Louis, Mo.), and killed by decapitation. After removing the brains, the hippocampus was dissected and subsequently placed on a McIlwain tissue chopper where slices (400 μm thick) were obtained and placed in a solution of cutting medium consisting of Minimum Essential Medium (MEM) with Earle's salts (Gibco, Grand Island, N.Y.), 25 mM HEPES buffer, 10 mM Tris base, 10 mM glucose, and 3 mM MgCl2, pH 7.20. Hippocampal slices were then placed onto the membranes of Millicell-CM culture inserts (Millipore Corp., Bedford, Mass.) in 6 well culture cluster plates and 1 ml of media per well using the methods described by Stoppini et al., J. Neurosci. Methods 37(2):173-82 (1991). The culture medium was described previously by Bednarski et al., J. Neurosci. 17(11):4006-21 (1997). The cultures were incubated in a 37° C. atmosphere containing 5% CO2 and the culture medium was replaced every other day until the initiation of experiments. Each culture cluster plate contained hippocampal slices from either two wild-type or two apoE-knockout mice and individual wells were used for matched control and experimental treatment groups.
(§2) After maintaining the slices with normal culture medium (Bednarski et al., J. Neurosci. 17(11):4006-21 (1997)) in vitro for 12-14 days, slices were incubated with culture medium containing either 20 μM N-CBZ-L-phenylalanyl-L-alanine-diazomethyl-ketone (ZPAD; BACHEM Bioscience, Inc., Torrance, Calif.), an inhibitor of cathepsins B and L (Shaw & Dean, Biochem. J. 186:385-390 (1980); Green & Shaw, J Biol Chem. 256:1923-1928 (1981); Richardson et al., J. Cell Biol. 107: 2097-2107 (1988)) or vehicle (dimethylsulfoxide; DMSO, 0.01%-0.04%) for six days. This treatment media was exchanged every other day.
Control and ZPAD-treated slices were collected in ice-cold 10 mM Tris-HCl harvest buffer consisting of 0.32 M sucrose, 2 mM EDTA, 2 mM EGTA, and 0.1 mM leupeptin, pH 7.4, and centrifuged at 12,000×g for 5 minutes at 4° C. At this point, the pellets were resuspended in lysis buffer (8 mM HEPES, 1 mM EDTA, 0.3 mM EGTA, pH 8.0) and sonicated. The Bradford analysis was performed (Bradford, M, Anal. Biochem 72:248-254 (1976)) and 100-120 μg of protein from each sample was denatured by boiling for 5 min with 2.5% (wt/vol) sodium dodecyl sulfate (SDS) and 3% 2-mercaptoethanol and then subjected to SDS-PAGE on 10% linear gradient gels. See Laemmli et al., J. Mol. Biol. 47:69-85 (1970). […] Relative optical densities and areas of immunobands were quantified using the NIH image analysis system.

tangle-like structures = assay: AT8 immunocytochemistry of cultured mouse hippocampal slices; format: cell-based; details: ZPAD 6 days; for number of AT8 immunopositive profiles: 0.3 mm^2 box at CA1/subicular border, mean±s.e.m., n=5
Protocol: as §1, §2
For immunocytochemical staining, control and ZPAD-treated slices from both wild-type and apoE-deficient mice were fixed in 4% paraformaldehyde in 0.1 M phosphate buffer (“PB”) at 4° C. overnight, rinsed once in a solution of phosphate buffered saline PBS (PB: phosphate buffer: 0.1M Na2HPO4 and NaH2PO4; PBS: phosphate buffered saline: NaCl 8 g, KCl 0.2 g, Na2HPO4 1.44 g, KH2PO4 0.24 g, dissolved in 1 liter distilled water, pH 7.4) cryoprotected in 20% sucrose in 0.1 M PB, sectioned on a freezing microtome at 25 μm parallel to the broad upper surface of the explant and mounted onto sterile Fisher Superfrost/Plus slides. […]

TGF-beta = assay: RT-PCR/northern blot of cytokine mRNA in cultured hippocampal slices; format: cell-based; details: ZPAD 20 μM, mevastatin 20 μM
cathepsin D [2] = details: literature report; cited from earlier work
[3] = apoE-knockout mouse slices, relative to yoked knockout controls
[4] = wild-type mouse slices, relative to controls, mean±s.e.m.

**Q.** What does the source list for “N-CBZ-L-phenylalanyl-L-alanine-diazomethyl-ketone [ZPAD]”?
**A.** increase in cathepsin D heavy chain (~38 kDa) (cathepsin D [1]; apoE-knockout mouse slices, relative to control values): 84±26% and 84+26%; increase in cathepsin D proenzyme (~55 kDa) (cathepsin D [1]; [3]): 145±43% and 145+43%; increase in cathepsin D single chain (~50 kDa) (cathepsin D [1]; [3]): 150±29% and 150+29%; increase in cathepsin D heavy chain (~38 kDa) (cathepsin D [1]; [4]): 3.0±5.7% and 3.0+5.7%; increase in cathepsin D single chain form (~50 kDa) (cathepsin D [1]; [4]): 42±22% and 42+22%; increase in cathepsin D proenzyme (~55 kDa) (cathepsin D [1]; wild-type mouse slices, relative to yoked controls, mean±s.e.m., n=9): 65±29% and 65+29%; increase in levels of the 15-35 kDa tau fragments (tau proteins; apoE-knockout mouse slices): 277±20%; reduction in native tau proteins (50-55 kDa) (tau proteins; apoE-knockout mouse slices): 35±1.1%; increase in levels of the 15-35 kDa tau fragments (tau proteins; wild-type mouse slices): 240±19%; reduction in native tau proteins (50-55 kDa) (tau proteins; wild-type mouse slices): 22±2.6%; AT8-immunoreactive tangle-like structures (tangle-like structures; apoE-knockout mouse slices): present in large numbers; also recorded: significantly increased; also recorded: more than double; also recorded: Numerous, densely stained neurons; also recorded: Numerous immunopositive neurons; also recorded: numerous, densely labeled cells; number of AT8 immunopositive profiles (tangle-like structures; apoE-knockout slices): 193.8±15; AT8-immunoreactive tangle-like structures (tangle-like structures; wild-type mouse slices): occasionally found; also recorded: far fewer AT8-ir structures; number of AT8 immunopositive profiles (tangle-like structures; wild-type slices): 112.6±13; mRNA levels of TGF-beta (TGF-beta): increases; enzymatically active cathepsin D (cathepsin D [2]): increases in enzymatically active cathepsin D
